# Results reported in patent publication US20260022094A1, “Compounds for the Treatment of Neurodegenerative Diseases” (Celgene Corporation, priority 2022, published 2026).
# Target: T1, S1P5 receptors (Homo sapiens, UniProt Q9H228)
# T1 construct: expressed in transfected cells; host or cells: CHO cells (membranes)
# Experiment: [35S]-GTPγS binding assay on CHO-S1P5 membranes (S1P5 agonism)
# Assay type: biochemical
# Details: membranes of CHO cells expressing recombinant S1P5; measure of S1P5 agonism
# Protocol: CHO cells expressing recombinant S1P5 receptors were cultured in 500 cm^2 culture trays and, once confluent, rinsed and detached with cell-lifting buffer (10 mM HEPES, 154 mM NaCl, 6.85 mM EDTA, pH 7.4). Cells were then pelleted by centrifugation, resuspended, and homogenized in membrane preparation buffer (10 mM HEPES and 10 mM EDTA, pH 7.4) using a Polytron PT 1200E homogenizer (Kinematica, Luzern, Switzerland). Cellular proteins were pelleted by centrifugation at 48,000×g at 4° C. for 30 minutes. The resulting supernatant was discarded, and the pellet was re-suspended again in membrane preparation buffer, homogenized for a second time, and then centrifuged again as described above. The final cellular protein pellet was suspended in ice cold resuspension buffer (10 mM HEPES and 0.1 mM EDTA, pH 7.4), divided into aliquots, and stored at −80° C. until use.
# Functional binding assays for [^35S]-GTPγS were performed in 96-well non-binding surface plates with a final volume of 200 μL. The test compounds were serially diluted in DMSO and added to assay plates using a Tecan D300E digital printer with a total volume of 0.4 μL. The control sphingosine-1-phosphate (SIP) was prepared separately by preparing a 400 µM stock solution from a 100 nmol pellet of S1P in 10 mM Na2CO3 with 2% β-cyclodextrin. The serial dilution of S1P was done using complete assay buffer (20 mM HEPES, 10 mM MgCl2, 100 mM NaCl, 1 mM EDTA, 0.1% fatty acid free bovine serum albumin (BSA), and 30 μg/mL saponin, pH 7.4) and transferred to wells already containing 0.4 μL DMSO. All the wells were then loaded to a total volume of 40 μL of complete assay buffer, except the non-specific binding (NSB) wells. For NSB wells, 40 μL/well of 50 μM GTPγS (Sigma Aldrich, cat #G8634, St. Louis, MO) was added to wells containing 0.4 μL of DMSO. The assay was started by the addition of 120 μL/well of CHO-SIP receptor membrane solution containing 40 μg/mL of membrane protein, 16.67 μM guanosine diphosphate (GDP; Sigma Aldrich, cat #G7127, St. Louis, MO), and 2.5 mg/mL of WGA PVT SPA beads in complete buffer. Assay plates were then sealed and incubated at room temperature with gentle agitation for 30 minutes. Next, 40 μL/well of 1 nM of [^35S]-GTPγS (PerkinElmer, cat #NEG030X^250UC, Waltham, MA) in basic assay buffer (20 mM HEPES, 10 mM MgCl2, 100 mM NaCl, and 1 mM EDTA, pH7.4) was added to the assay plates to yield a final concentration of […] and the plates were further incubated for 40 minutes at room temperature with gentle agitation. The assay was terminated by centrifugation of the plates at 1000 rpm for 3 minutes using an Eppendorf 5810R centrifuge (Eppendorf, Hamburg, Germany) and G protein bound radioactivity was quantitated using a MicroBeta2 microplate scintillation counter (PerkinElmer, Waltham, MA). As G protein bound radioactivity directly correlates to receptor activation and coupling to the G protein, this assay is a measure of S1P5 agonism.
# T1 sequence (Q9H228 whole entry): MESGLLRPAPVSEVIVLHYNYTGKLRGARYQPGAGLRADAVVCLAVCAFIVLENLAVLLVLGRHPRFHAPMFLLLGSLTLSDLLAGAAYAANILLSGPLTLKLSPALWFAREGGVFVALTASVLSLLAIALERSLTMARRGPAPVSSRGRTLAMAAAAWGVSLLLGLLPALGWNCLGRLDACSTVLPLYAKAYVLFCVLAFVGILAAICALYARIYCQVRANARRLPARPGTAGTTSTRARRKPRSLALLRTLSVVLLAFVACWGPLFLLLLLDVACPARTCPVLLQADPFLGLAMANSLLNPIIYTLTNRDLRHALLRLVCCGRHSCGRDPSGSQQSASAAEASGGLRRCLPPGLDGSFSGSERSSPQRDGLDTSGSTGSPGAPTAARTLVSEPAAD
row,Compound,EC50 [nM]
1,"CC1(O)CN(Cc2ccc(N3CC(c4c(Cl)cccc4Cl)C3)c(F)c2)C1 [Compound 67, 1-(4-(3-(2,6-dichlorophenyl)azetidin-1-yl)-3-fluorobenzyl)-3-methylazetidin-3-ol]",10 to 100
2,"Cc1cc2c(cc1OCc1c(Cl)cccc1Cl)CCC2N1CC(C)(O)C1 (single isomer, unassigned) [Compound 24b, 1-[5-[(2,6-dichlorophenyl)methoxy]-6-methyl-indan-1-yl]-3-methyl-azetidin-3-ol]",1 to 10
3,"Cc1cc2c(cc1C#Cc1cccc(F)c1)CCC2N1CC(C)(O)C1 (single isomer, unassigned) [Compound 22b, 1-[5-[2-(3-fluorophenyl)ethynyl]-6-methyl-indan-1-yl]-3-methyl-azetidin-3-ol]",10 to 100
4,"Cc1cc(C2CN(c3c(Cl)cccc3Cl)C2)cc(C)c1CN1CCC(C)(O)CC1 [Compound 34, 1-(4-(1-(2,6-dichlorophenyl)azetidin-3-yl)-2,6-dimethylbenzyl)-4-methylpiperidin-4-ol]",100 to 1000
5,"Cc1cc(C2CN(c3cccc(F)c3)C2)cc(C)c1CN1CC(C)(O)C1 [Compound 45, 1-(4-(1-(3-fluorophenyl)azetidin-3-yl)-2,6-dimethylbenzyl)-3-methylazetidin-3-ol]",1000 to 10000
6,"CC1(O)CN(Cc2ccc(C3CN(c4c(Cl)cccc4Cl)C3)cc2)C1 [Compound 31, 1-(4-(1-(2,6-dichlorophenyl)azetidin-3-yl)benzyl)-3-methylazetidin-3-ol]",10 to 100
7,"Cc1c(CCc2c(Cl)cccc2Cl)ccc2c1CCC2N1CC(C)(O)C1 (single isomer, unassigned) [Compound 18b, 1-[5-[2-(2,6-dichlorophenyl)ethyl]-4-methyl-indan-1-yl]-3-methyl-azetidin-3-ol]",1 to 10
8,"Cc1cc2c(cc1CCc1c(Cl)cccc1Cl)CCC2N1CC(C)(O)C1 (single isomer, unassigned) [Compound 23a, 1-[5-[2-(2,6-dichlorophenyl)ethyl]-6-methyl-indan-1-yl]-3-methyl-azetidin-3-ol]",10 to 100
9,"CC1(O)CN(C2CCc3cc(C#Cc4ccccc4F)ccc32)C1 (single isomer, unassigned) [Compound 1a, 1-[5-[2-(2-fluorophenyl)ethynyl]indan-1-yl]-3-methyl-azetidin-3-ol]",10 to 100
10,"Cc1cc(-c2ccc(C3CC3)c(Cl)c2)cc2c1C(N1CCC(C)(O)CC1)CC2 (stereo not drawn) [Compound 11, 1-(5-(3-chloro-4-cyclopropylphenyl)-7-methyl-2,3-dihydro-1H-inden-1-yl)-4-methylpiperidin-4-ol]",1000 to 10000
11,"Cc1cc(-c2ccc(C3CC3)c(Cl)c2)cc2c1C(N1CC(C)(O)C1)CC2 (single isomer, unassigned) [Compound 10a, 1-[5-(3-chloro-4-cyclopropyl-phenyl)-7-methyl-indan-1-yl]-3-methyl-azetidin-3-ol]",1 to 10
12,"Cc1cc(-c2ccc(C3CC3)c(Cl)c2)cc2c1C(N1CC(C)(O)C1)CC2 (single isomer, unassigned) [Compound 10b, 1-[5-(3-chloro-4-cyclopropyl-phenyl)-7-methyl-indan-1-yl]-3-methyl-azetidin-3-ol]",1 to 10
13,"CC1(O)CCN(C2CCc3cc(-c4ccc(C5CC5)c(Cl)c4)ccc32)C1 (stereo not drawn) [Compound 7, 1-(5-(3-chloro-4-cyclopropylphenyl)-2,3-dihydro-1H-inden-1-yl)-3-methylpyrrolidin-3-ol]",100 to 1000
14,"CC1(O)CN(Cc2ccc(C3CN(c4c(Cl)cccc4Cl)C3)cc2F)C1 [Compound 61, 1-(4-(1-(2,6-dichlorophenyl)azetidin-3-yl)-2-fluorobenzyl)-3-methylazetidin-3-ol]",100 to 1000
15,"CC1(O)CN(C2CCc3cc(C#Cc4cccc(F)c4)ccc32)C1 (single isomer, unassigned) [Compound 2b, 1-[5-[2-(3-fluorophenyl)ethynyl]indan-1-yl]-3-methyl-azetidin-3-ol]",10 to 100
16,"Cc1cc(C2CN(c3c(Cl)cccc3Cl)C2)cc(Cl)c1CN1CC(C)(O)C1 [Compound 49, 1-(2-chloro-4-(1-(2,6-dichlorophenyl)azetidin-3-yl)-6-methylbenzyl)-3-methylazetidin-3-ol]",10 to 100
17,"Cc1cc(C2CN(c3ccccc3)C2)cc(C)c1CN1CC(C)(O)C1 [Compound 43, 1-(2,6-dimethyl-4-(1-phenylazetidin-3-yl)benzyl)-3-methylazetidin-3-ol]",1000 to 10000
18,"Cc1cc(C2CN(c3c(Cl)cccc3Cl)C2)cc(C2CC2)c1CN1CC(C)(O)C1 [Compound 54, 1-(2-cyclopropyl-4-(1-(2,6-dichlorophenyl)azetidin-3-yl)-6-methylbenzyl)-3-methylazetidin-3-ol]",10 to 100
19,"Cc1cc(C2CN(c3c(Cl)cccc3Cl)C2)c(C)cc1CN1CC(C)(O)C1 [Compound 56, 1-(4-(1-(2,6-dichlorophenyl)azetidin-3-yl)-2,5-dimethylbenzyl)-3-methylazetidin-3-ol]",10 to 100
20,"Cc1cc(N2CC(c3c(Cl)cccc3Cl)C2)cc(C)c1CN1CC(C)(O)C1 [Compound 37, 1-(4-(3-(2,6-dichlorophenyl)azetidin-1-yl)-2,6-dimethylbenzyl)-3-methylazetidin-3-ol]",1 to 10
21,"CC1(O)CN(C2CCc3cc(C#Cc4cccc(F)c4)ccc32)C1 (single isomer, unassigned) [Compound 2a, 1-[5-[2-(3-fluorophenyl)ethynyl]indan-1-yl]-3-methyl-azetidin-3-ol]",100 to 1000
22,"Cc1c(-c2ccc(C3CC3)c(Cl)c2)ccc2c1CCC2N1CC(C)(O)C1 (single isomer, unassigned) [Compound 16b, 1-[5-(3-chloro-4-cyclopropyl-phenyl)-4-methyl-indan-1-yl]-3-methyl-azetidin-3-ol]",1 to 10
23,"CC1(O)CN(C2CCc3cc(-c4ccc(C5CC5)c(F)c4)ccc32)C1 (single isomer, unassigned) [Compound 4a, 1-(5-(4-cyclopropyl-3-fluorophenyl)-2,3-dihydro-1H-inden-1-yl)-3-methyl azetidin-3-ol]",10 to 100
24,"Cc1cc(C2CN(c3c(Cl)cccc3Cl)C2)cc(C)c1CN1CC(O)(C(F)(F)F)C1 [Compound 41, 1-(4-(1-(2,6-dichlorophenyl)azetidin-3-yl)-2,6-dimethylbenzyl)-3-(trifluoromethyl) azetidin-3-ol]",100 to 1000
25,"Cc1c(-c2ccc(C3CC3)c(Cl)c2)cc2c(c1C)C(N1CC(C)(O)C1)CC2 (single isomer, unassigned) [Compound 27a, 1-(5-(3-chloro-4-cyclopropylphenyl)-6,7-dimethyl-2,3-dihydro-1H-inden-1-yl)-3-methylazetidin-3-ol]",1 to 10
26,"Cc1cc(C#Cc2cccc(F)c2)cc2c1C(N1CC(C)(O)C1)CC2 (single isomer, unassigned) [Compound 13a, 1-[5-[2-(3-fluorophenyl)ethynyl]-7-methyl-indan-1-yl]-3-methyl-azetidin-3-ol]",10 to 100
27,"CC1(O)CCN(Cc2ccc(N3CC(c4c(Cl)cccc4Cl)C3)cc2)CC1 [Compound 32, 1-(4-(3-(2,6-dichlorophenyl)azetidin-1-yl)benzyl)-4-methylpiperidin-4-ol]",1000 to 10000
